Laboratory results: PMC3544269 (2012)

How the values were obtained:
[1] = system: #3_7 (group 1) (DNA, aptamer) ATACCAGCTTATTCAATTGGTGGTAGGATGGGCTCGATCGAGGTCTTCAGTCGGCTCGGTTTAGTTTATGTTCTCCTGTAGATAGTAAGTGCAATCT; assay: fluorescent aptamer release from capture-oligo magnetic beads; details: 100 mM NaCl, 5 mM KCl, 2 mM MgCl2, 1 mM CaCl2; 20 mM Tris-HCl pH 7.6, 21 °C; capture oligo i-ODN2Sp; 1 mM compound; threshold 1 pmol eluted
[2] = system: #3_18 (group 7) (DNA, aptamer) ATACCAGCTTATTCAATTAGCATGGTGCTGAGGCTTGATCTGGAGGTCGTGAACGAAAATTGGTCGTTTAGTTGGCTCGTAGATAGTAAGTGCAATCT; assay: as above; details: 100 mM NaCl, 5 mM KCl, 2 mM MgCl2, 1 mM CaCl2; 20 mM Tris-HCl pH 7.6, 21 °C; capture oligo i-ODN2Sp; 1 mM compound; threshold 1 pmol eluted
[3] = system: #13_83 (group 3 representative) (DNA, aptamer) ATACCAGCTTATTCAATTGGGGAGATCTTGAGGCTCGATCGATAGTAGCTGTGACAGTCTACGTTTTATGGTATGCGGGTAGATAGTAAGTGCAATCT; assay: as above; details: 100 mM NaCl, 5 mM KCl, 2 mM MgCl2, 1 mM CaCl2; 20 mM Tris-HCl pH 7.6, 21 °C; capture oligo i-ODN2Sp; 1 mM compound; threshold 1 pmol eluted
[4] = system: #3_7 (group 1) (DNA, aptamer) ATACCAGCTTATTCAATTGGTGGTAGGATGGGCTCGATCGAGGTCTTCAGTCGGCTCGGTTTAGTTTATGTTCTCCTGTAGATAGTAAGTGCAATCT; assay: fluorescent aptamer release from capture-oligo magnetic beads, one-site fit; details: 100 mM NaCl, 5 mM KCl, 2 mM MgCl2, 1 mM CaCl2; 20 mM Tris-HCl pH 7.6, 21 °C; capture oligo i-ODN2Sp displaced; apparent; kanamycin A 0-1.5 mM

binding [1] | binding [2] | binding [3] | KD [4] | SMILES
no | no | no |  | CC(C)NCC(O)c1ccc(NS(C)(=O)=O)cc1 (stereo not drawn)
no | no | no |  | Cc1cc(NS(=O)(=O)c2ccc(N)cc2)no1
no | no | no |  | NC(=O)NS(=O)(=O)c1ccc(N)cc1
 | yes | no | 24 µM | NC[C@H]1O[C@H](O[C@H]2[C@H](O)[C@@H](O[C@H]3O[C@H](CO)[C@@H](O)[C@H](N)[C@H]3O)[C@H](N)C[C@@H]2N)[C@H](O)[C@@H](O)[C@@H]1O
